These results are taken from patent publication US4758558A, “N-(substituted)-[7-(2-cyanoacetamido)cephalosporanic]amide derivatives having antibiotic utility” (priority 1982, dated 1988).

The structures appear in SMILES notation.

Series [1] deals with Staphylococcus aureus IAM 1011. As to the kind of experiment: Treatment of experimental infectious disease in mouse due to Staphylococcus aureus. The series is classed as in vivo, ddY SPE mice. The note with it: oral, two times just after and 4 hours after inoculation; 2.3×10^8 cells i.p. The source says:
(§1) (e) Effectiveness in treating experimental infectious disease due to bacteria:
(§2) (Refer to Example 22 for the details of the test.) As the result, while all the twenty mice artificially infected with each of the two bacterial species and not-treated with any of the present compound died on the second day of inoculation, more than 40% of the twenty mice artificially infected with each of the two bacterial species and administered with each of the three present compounds were alive even after 7 days of inoculation.
(§3) Effectiveness of the present compound in treatment of an experimental infectious disease in mouse
(2) Disease due to infection of Staphylococcus aureus
Each mouse of the two groups (20 animals/group) of ddY SPE mice was inoculated with 2.3×10^8 cells of Staphylococcus aureus IAM 1011 intraperitoneally, and then, each mouse of the one of the two groups was administered orally with one of the present compounds, namely the compound produced in Example 5, 10 or 13, two times just after and 4 hours after the inoculation, while the 20 mice of the other group were not administered.

The subject of the next series is Lactobacillus bifidus. As to the kind of experiment: Effect on intestinal bacteria: number of Lactobacillus bifidus in feces. The series is classed as in vivo, ICR mice. The note with it: mouse, in vivo, po, 500 mg/kg/day. The procedure: (§4) (b) Effect on the intestinal bacterial colonies: […]
(§5) Effects of the present compound on intestinal bacteria
(§6) Each of the present compounds respectively produced in Examples 1 to 18 was orally administered continuously for 2 days at a daily dose rate of 500 mg/kg body weight to each of five female ICR mice of each group after 6 weeks of their birth.
(§7) Each of the two fecal specimens respectively collected from each mouse before and after one day of the administration was diluted with 100 times by weight of an anaerobic diluent (a phosphoric acid buffer solution) and was ground in a mortar, and 0.1 ml of the thus ground material was smeared on each of the following culture media for the following bacteria, and the thus inoculated culture media were incubated under the following conditions. Thereafter, the number of the following bacteria in each of the thus cultured media was determined.
BS agar 37° C., 5 days, […]

Another series deals with a species of Bacteroides. The series is described as follows: Effect on intestinal bacteria: number of a sp. of Bacteroides in feces. It counts as in vivo, ICR mice. The note with it: mouse, in vivo, po, 500 mg/kg/day. The procedure:
as §4, §5, §6, §7
a species of Bacteroides
NBGT agar 37° C., 5 days, […]

The subject of another series is Escherichia coli. The series is described as follows: Effect on intestinal bacteria: number of Escherichia coli in feces. It counts as in vivo, ICR mice. The note with it: after oral administration for 2 days, 500 mg/kg/day, female ICR mice; before: 6.4. The procedure:
(b) Effect on the intestinal bacterial colonies:
[…] Each portion of the two kinds of the feces was cultured at 25° C. or 37° C. in a variety of culture medium for one to five days to see the state of Escherichia coli, Pseudomonas aeruginosa, a Streptococcus species, a Lactobacillus species, Lactobacillus bifidus and a Bacteroides species in the culture medium.
as §5
Each of the two fecal […] by weight of an anaerobic diluent (a phosphoric acid buffer solution) and was ground in a mortar, and 0.1 ml of the thus ground material was smeared on each of the following culture media for the following bacteria, and the thus inoculated culture media were incubated under the following conditions. Thereafter, the number of the following bacteria in each of the thus cultured media was determined.

The test system of series [2] is a species of Streptococcus. As to the kind of experiment: Effect on intestinal bacteria: number of a sp. of Streptococcus in feces. It counts as in vivo, ICR mice. Conditions: mouse, in vivo, po, 500 mg/kg/day. The procedure: as §4, §5, §6, §7
a species of Streptococcus
TATAC agar 37° C., one day, […]

The next series deals with Pseudomonas aeruginosa. The series is described as follows: Effect on intestinal bacteria: number of Pseudomonas aeruginosa in feces. The note with it: mouse, in vivo, po, 500 mg/kg/day. The series is classed as in vivo, ICR mice. The procedure:
as §5, §6, §7
NAC agar 37° C., one day, […]

For series [3], the system named is Escherichia coli IFO 12734. The series is described as follows: Treatment of experimental infectious disease in mouse due to Escherichia coli. It counts as in vivo, ddY SPE mice. Conditions: oral, two times just after and 4 hours after inoculation; 1.4×10^8 cells i.p.
Text: as §1, §2, §3
(1) Disease due to infection of Escherichia coli
Each mouse of the two groups (20 animals/group) of ddY SPE mice was inoculated with 1.4×10^8 cells of Escherichia coli IFO 12734 intraperitoneally, and then, each mouse of the one of the two groups was administered orally with one of the present compounds, namely the compound produced in Example 5, 10 or 13, two times just after and 4 hours after the inoculation, while the 20 mice of the other group were not administered.

Series [4] has as its system Escherichia coli IFO 12734. The series is described as follows: Antibacterial activity in vitro (MIC) against Escherichia coli. The series is classed as cell-based. Conditions: IFO12734, Mueller-Hinton agar, 18 to 24 hours, 37° C., read-out: MIC (minimum growth inhibiting concentration) against Escherichia coli. The procedure:
(§8) (c) Anti-bacterial activity (in vitro):
(§9) Minimum concentration of the present compound inhibiting the growth of the following bacteria was determined according to the standard procedures of Japan Society of Chemotherapy:
Escherichia coli IFO 12734 and
(§10) Determination of the antibacterial activity of the present compound produced in Examples 1 to 18, respectively was carried out according to the standard procedures of Japan Society of Chemotherapy for finding MIC (the minimum concentration of a specimen to inhibit the growth of a species of bacteria).
(§11) A series of diluted solutions of each of the present compound were mixed with 9 times by weight of Mueller-Hinton's culture medium as the culture medium for determining the sensitivity of a bacterial species, and flat agar culture plates were prepared by using the thus obtained mixture.
(§12) Each of the liquids respectively containing one of the bacterial species shown in Table 2 was smeared onto each of the thus prepared flat agar culture plates with a platinum loop, in length of about 2 cm, and the thus treated plates were incubated for 18 to 24 hours at 37° C. Thereafter, by observing the growth state of each bacterial species on the cultured plates, the minimum concentration of each compound completely inhibiting the growth of each bacterial species was found.

The subject of series [5] is Staphylococcus aureus IAM 1011. The series is described as follows: Antibacterial activity in vitro (MIC) against Staphylococcus aureus. It counts as cell-based. The note with it: IAM1011, Mueller-Hinton agar, 18 to 24 hours, 37° C., read-out: MIC (minimum growth inhibiting concentration) against Staphylococcus aureus. As to the method: as §8, §9
Staphylococcus aureus IAM 1011
as §10, §11, §12

Series [6] deals with a species of Lactobacillus. As to the kind of experiment: Effect on intestinal bacteria: number of a sp. of Lactobacillus in feces. Conditions: mouse, in vivo, po, 500 mg/kg/day. It counts as in vivo, ICR mice. As to the method: as §4, §5, §6, §7
a species of Lactobacillus
LBS agar 37° C., 5 days, […]

Consider `COC(=O)CNC(=O)c1ccc(NC(=O)C2=C(C)CSC3C(NC(=O)[C@H](N)c4ccccc4)C(=O)N23)cc1` (stereo partly drawn) [Example 5, N-(4-carbomethoxymethylcarbamoylphenyl)-[7-(D-alpha-aminophenylacetamido)desacetoxycephalosporanic]amide], for which the “mice alive on the 7th day of inoculation (Staphylococcus aureus infection)” value in [1] is “more than 65%”. For the same compound, in the series with Lactobacillus bifidus, the “Number of Lactobacillus bifidus after the administration” value (shortened to “Number of Lactobacillus bifidus”) is reported as 8.4 Log10 (number of bacteria/g feces). In the series on a species of Bacteroides, the “Number of a sp. of Bacterioides after the administration” value (“Number of a sp. of Bacterioides” for short) is 8.4 Log10 (number of bacteria/g feces). In addition, in the series with Escherichia coli, the “Number of Escherichia coli after the administration” value (“Number of Escherichia coli” below) was 6.5 Log10 (number of bacteria/g feces). In addition, in [2], the “Number of a sp. of Streptococcus after the administration” value (from here on “Number of a sp. of Streptococcus”) is reported as 6.7 Log10 (number of bacteria/g feces). In the series with Pseudomonas aeruginosa, the “Number of Pseudomonas aeruginosa after the administration” value (“Number of Pseudomonas aeruginosa” for short) is < 3.0 Log10 (number of bacteria/g feces). For the same compound, the “mice alive on the 7th day of inoculation (Escherichia coli infection)” value in series [3] was “more than 60%”. Besides, the MIC in series [4] and in series [5] was not below 100 µg/mL each time. For the same compound, the “Number of a sp. of Lactobacillus after the administration” value (“Number of a sp. of Lactobacillus” for short) in series [6] is 8.9 Log10 (number of bacteria/g feces).

Consider `CC(=O)OCC1=C(C(=O)Nc2ccc(C)cc2)N2C(=O)C(NC(=O)CC#N)C2SC1` (stereo not drawn) [Example 10, N-(4-methylphenyl)-[7-(2-cyanoacetamido)caphalosporanic]amide], for which the “mice alive on the 7th day of inoculation (Staphylococcus aureus infection)” value in [1] was “more than 85%”. In the series on Lactobacillus bifidus, the “Number of Lactobacillus bifidus” value is listed as 8.2 Log10 (number of bacteria/g feces). Also, the “Number of a sp. of Bacterioides” value with a species of Bacteroides was 8.9 Log10 (number of bacteria/g feces). Also, the “Number of Escherichia coli” value in the series with Escherichia coli is on record as 6.8 Log10 (number of bacteria/g feces). The “Number of a sp. of Streptococcus” value in series [2] is given as 6.8 Log10 (number of bacteria/g feces). Besides, the “Number of Pseudomonas aeruginosa” value in the series on Pseudomonas aeruginosa is < 3.0 Log10 (number of bacteria/g feces). Moreover, in [3], the “mice alive on the 7th day of inoculation (Escherichia coli infection)” value is listed as “more than 80%”. Moreover, the MIC in series [4] and in series [5] was not below 100 µg/mL in each case. Moreover, the “Number of a sp. of Lactobacillus” value in [6] is 9.0 Log10 (number of bacteria/g feces).

`Cc1nnc(SCC2=C(C(=O)NCCc3ccc(O)cc3)N3C(=O)C(NC(=O)Cn4cnnn4)C3SC2)s1` (stereo not drawn) [Example 17, N-[beta-(4-hydroxyphenyl)ethyl]-{7-(1-1H-tetrazolylacetamido)-3-[2-(5-methyl-1,3,4-thiadiazolyl)thiomethyl]-3-cephem-4-carboxylic}amide]: the “Number of Lactobacillus bifidus” value in the series on Lactobacillus bifidus was 8.4 Log10 (number of bacteria/g feces). In addition, the “Number of a sp. of Bacterioides” value in the series with a species of Bacteroides was 8.1 Log10 (number of bacteria/g feces). In the series with Escherichia coli, the “Number of Escherichia coli” value was 6.4 Log10 (number of bacteria/g feces). In addition, the “Number of a sp. of Streptococcus” value in [2] was 6.9 Log10 (number of bacteria/g feces). Moreover, the “Number of Pseudomonas aeruginosa” value with Pseudomonas aeruginosa was < 3.0 Log10 (number of bacteria/g feces). In addition, the MIC in series [4] is not below 3.12 µg/mL; in [5], not below 0.78 µg/mL. The “Number of a sp. of Lactobacillus” value in [6] is listed as 9.0 Log10 (number of bacteria/g feces).

Take `Cc1nnc(SCC2=C(C(=O)Nc3ccc(C(N)=O)cn3)N3C(=O)C(NC(=O)Cn4cnnn4)C3SC2)s1` (stereo not drawn) [Example 18, N-(6-nicotinic amide)-{7-(1-1h-tetrazolylacetamido)-3-[2-(5-methyl-1,3,4-thiadiazolyl)thiomethyl]-3-cepehem-4-carboxylic}amide]: the “Number of Lactobacillus bifidus” value in the series on Lactobacillus bifidus is 8.4 Log10 (number of bacteria/g feces). Besides, the “Number of a sp. of Bacterioides” value in the series with a species of Bacteroides is on record as 8.1 Log10 (number of bacteria/g feces). In the series on Escherichia coli, the “Number of Escherichia coli” value is reported as 6.4 Log10 (number of bacteria/g feces). In addition, in series [2], the “Number of a sp. of Streptococcus” value is 6.9 Log10 (number of bacteria/g feces). The “Number of Pseudomonas aeruginosa” value in the series with Pseudomonas aeruginosa is recorded as < 3.0 Log10 (number of bacteria/g feces). In addition, the MIC is not below 100 µg/mL in series [4] and not below 12.5 µg/mL in series [5]. Further, the “Number of a sp. of Lactobacillus” value in series [6] was 9.0 Log10 (number of bacteria/g feces).
